Measurements taken from patent publication US20260049071A1, “PROTEIN TYROSINE KINASE INHIBITOR AND MEDICAL USE THEREOF” (BEYANG THERAPEUTICS CO., LTD., priority 2022, published 2026).

Legend:
KDR (VEGFR2) = KDR (VEGFR2) (Homo sapiens (Human), UniProt P35968); assay: Kinase inhibition, Mobility Shift Assay (VEGFR2); format: biochemical
Procedure: (§1) This assay directly monitored the ability of compounds to inhibit kinase phosphorylation by measuring non-phosphorylated and phosphorylated substrates in kinase reactions by using Mobility Shift Assays/IMAP™ analysis.
(§2) Add the kinase and DTT to 1× kinase buffer to form a 2.5× kinase solution; transfer 10 μL of 2.5× kinase solution to a 384-well reaction plate and add 1× kinase buffer to negative control wells. Incubate the plate for 10 min at room temperature; add FAM-labeled peptides, MgCl2, ATP and other reagents to 1× kinase buffer to form a 2.5× substrate solution; transfer 10 μL of the above 2.5× substrate solution to the 384-well reaction plate; incubate the plate at 28° C. for different times, and add 25 μL of stop solution to the 384-well reaction plate to stop the reaction. Read the conversion ratio data on CaliperEZ Reader II. Convert conversion rates into inhibition ratio data.
(§3) “Min” indicates the readout of the control well without the addition of kinase; and “Max” indicates the readout of the control well with the addition of DMSO. Fit IC50 values with XLFit excel add-in version 5.4.0.8.
(§4) X indicates the log value of compound concentration, and Y indicates the inhibition ratio (% inhibition).

FLT1 (VEGFR1) = FLT1 (VEGFR1) (Homo sapiens (Human), UniProt P17948); assay: Kinase inhibition, Mobility Shift Assay (VEGFR1); format: biochemical
FLT1 (VEGFR1), sequence (P17948 27-1338): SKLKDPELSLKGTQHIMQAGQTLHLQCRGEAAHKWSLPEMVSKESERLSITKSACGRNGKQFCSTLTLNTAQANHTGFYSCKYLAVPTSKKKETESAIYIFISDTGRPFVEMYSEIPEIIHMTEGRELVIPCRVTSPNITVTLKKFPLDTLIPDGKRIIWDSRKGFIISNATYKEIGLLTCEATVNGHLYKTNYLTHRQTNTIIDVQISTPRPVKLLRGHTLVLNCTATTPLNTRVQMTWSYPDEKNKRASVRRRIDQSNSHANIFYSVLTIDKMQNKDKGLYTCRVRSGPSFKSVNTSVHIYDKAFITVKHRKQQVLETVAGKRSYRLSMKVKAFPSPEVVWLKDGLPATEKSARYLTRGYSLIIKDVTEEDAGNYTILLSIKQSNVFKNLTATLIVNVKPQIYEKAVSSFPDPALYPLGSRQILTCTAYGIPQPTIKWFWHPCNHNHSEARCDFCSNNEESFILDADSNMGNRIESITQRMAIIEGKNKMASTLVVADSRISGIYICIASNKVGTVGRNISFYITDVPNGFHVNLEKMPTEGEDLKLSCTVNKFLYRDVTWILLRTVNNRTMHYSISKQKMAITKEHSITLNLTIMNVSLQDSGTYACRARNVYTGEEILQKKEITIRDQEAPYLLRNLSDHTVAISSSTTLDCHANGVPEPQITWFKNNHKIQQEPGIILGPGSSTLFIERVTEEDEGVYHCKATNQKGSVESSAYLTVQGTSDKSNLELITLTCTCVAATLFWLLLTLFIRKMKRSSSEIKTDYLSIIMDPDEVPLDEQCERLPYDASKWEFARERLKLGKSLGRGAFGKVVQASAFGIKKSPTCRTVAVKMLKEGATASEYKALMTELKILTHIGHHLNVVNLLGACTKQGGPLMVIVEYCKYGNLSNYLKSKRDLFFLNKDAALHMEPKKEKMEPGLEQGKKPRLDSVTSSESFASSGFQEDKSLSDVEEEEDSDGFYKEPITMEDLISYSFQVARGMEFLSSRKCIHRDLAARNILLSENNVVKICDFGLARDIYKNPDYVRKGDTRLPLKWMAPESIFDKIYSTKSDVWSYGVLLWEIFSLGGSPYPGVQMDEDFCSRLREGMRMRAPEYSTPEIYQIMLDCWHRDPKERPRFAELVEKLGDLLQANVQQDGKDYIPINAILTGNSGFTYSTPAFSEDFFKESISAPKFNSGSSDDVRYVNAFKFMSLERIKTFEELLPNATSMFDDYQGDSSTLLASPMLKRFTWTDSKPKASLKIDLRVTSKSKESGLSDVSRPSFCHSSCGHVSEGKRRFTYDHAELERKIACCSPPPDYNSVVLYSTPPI
Procedure: as §1, §2, §3, §4

FLT4 (VEGFR3) = FLT4 (VEGFR3) (Homo sapiens (Human), UniProt P35916); assay: Kinase inhibition, Mobility Shift Assay (VEGFR3); format: biochemical
FLT4 (VEGFR3), sequence (P35916 25-1363): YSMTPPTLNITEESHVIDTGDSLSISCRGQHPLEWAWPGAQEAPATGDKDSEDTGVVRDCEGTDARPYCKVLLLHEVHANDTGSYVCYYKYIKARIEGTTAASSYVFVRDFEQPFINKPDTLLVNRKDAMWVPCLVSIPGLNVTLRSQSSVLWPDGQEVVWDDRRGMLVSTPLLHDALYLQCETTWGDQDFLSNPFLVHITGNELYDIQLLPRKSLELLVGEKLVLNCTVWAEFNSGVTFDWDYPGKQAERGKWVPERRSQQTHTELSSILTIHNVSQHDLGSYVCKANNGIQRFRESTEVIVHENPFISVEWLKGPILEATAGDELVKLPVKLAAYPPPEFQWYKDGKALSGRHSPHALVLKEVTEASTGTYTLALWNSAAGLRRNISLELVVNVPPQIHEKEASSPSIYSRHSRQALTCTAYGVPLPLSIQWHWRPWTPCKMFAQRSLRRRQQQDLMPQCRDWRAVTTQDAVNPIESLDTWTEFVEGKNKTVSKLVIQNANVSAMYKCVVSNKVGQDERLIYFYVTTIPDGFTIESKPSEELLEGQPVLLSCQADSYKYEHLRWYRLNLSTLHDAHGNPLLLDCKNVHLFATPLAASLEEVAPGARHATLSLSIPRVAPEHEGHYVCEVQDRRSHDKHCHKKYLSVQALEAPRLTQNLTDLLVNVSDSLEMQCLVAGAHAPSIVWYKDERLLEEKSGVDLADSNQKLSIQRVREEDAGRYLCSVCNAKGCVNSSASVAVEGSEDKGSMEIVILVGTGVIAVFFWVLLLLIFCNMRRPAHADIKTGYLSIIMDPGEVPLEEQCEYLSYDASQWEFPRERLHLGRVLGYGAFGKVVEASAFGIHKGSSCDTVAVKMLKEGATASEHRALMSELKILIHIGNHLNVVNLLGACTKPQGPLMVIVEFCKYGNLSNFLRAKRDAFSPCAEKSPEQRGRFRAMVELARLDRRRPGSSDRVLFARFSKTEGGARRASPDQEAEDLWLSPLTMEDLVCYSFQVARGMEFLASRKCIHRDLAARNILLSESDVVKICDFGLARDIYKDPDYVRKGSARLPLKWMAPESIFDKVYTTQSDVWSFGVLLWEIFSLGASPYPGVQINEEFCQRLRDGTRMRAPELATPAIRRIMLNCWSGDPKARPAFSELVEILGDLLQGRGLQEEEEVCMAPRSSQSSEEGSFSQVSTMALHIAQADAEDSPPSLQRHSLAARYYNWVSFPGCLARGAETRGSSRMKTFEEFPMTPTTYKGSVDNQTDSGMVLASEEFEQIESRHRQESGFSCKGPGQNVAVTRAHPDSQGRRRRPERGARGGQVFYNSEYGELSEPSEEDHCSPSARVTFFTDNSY
Procedure: as §1, §2, §3, §4

melanin = assay: Binding capacity of compounds to melanin; format: in vitro ADME; details: Sepia officinalis (cuttlefish), melanin suspension (1 mg/mL); 1 mg/mL melanin suspension in PBS pH 7.4, 2 μM compound, 2 h at 37° C.; read-out: Fu % (percentage of free drug, not bound to melanin)
Text: Pigmented eye tissues contain melanin in intracellular melanosomes. Drugs bind to melanin to varying degrees, ranging from non-binding to extensive binding. Therefore, melanin binding is an important feature that affects drug delivery and biodistribution in the eye. The binding capacity of a compound to the melanin must be considered in the development of ophthalmic drugs.
Melanin was derived from the melanin of cuttlefish (Sepia officinalis) and was commercially available from Sigma Aldrich (St Louis, MO).
First, prepare 1 mg/mL melanin suspension with PBS (pH 7.4). As a washing step for the matrix, centrifuge the suspended particles for 5 min at 3000 rpm. Resuspend the resulting particles in a fresh PBS buffer, heat to 37° C. over continuous shaking and incubate it for 1 h. Accurately pipette 2 μL of the test stock solution (0.1 mM) into 98 μL of melanin suspension (1 mg/mL) to achieve a final incubation concentration of 2 μM. Similarly, accurately pipette 2 μL of the stock solution (0.1 mM) to 98 μL of PBS buffer (containing 0.1% BSA) as a blank control sample. Incubate the samples in a shaker (80-90 rpm) for 2 h at 37° C. Then, centrifuge the samples at room temperature. Pipette 50 μL of the supernatant and add 50 μL of precipitant (containing an internal standard). After protein precipitation of all the above samples, centrifuge the samples to collect the supernatants, dilute the supernatants with water (if necessary) and inject them for analysis. At the same time, measure the positive controls, including the high-binding compounds Sunitinib and chloroquine and the low-binding compound celecoxib. Establish an LC-MS/MS method for determining compound concentrations, and calibrate the peak area ratio of analyte/internal standard (Analyte/AIS) in the measured sample by the dilution factor to take it as an alternative concentration for the sample for data processing. The binding rate (Fh) of a compound in melanin was calculated as: […]
Ctest was the concentration of the compound in the melanin-incubated sample or the peak area ratio of the test compound to the internal standard. Ccontrol was the concentration of the compound in the blank control sample or the peak area ratio of the test compound to the internal standard. Percentage of free drug (Fu %)=100−Fb The binding rates of the compounds of the present invention to melanin are shown in the table below: […]

EGFR = EGFR (Homo sapiens (Human), UniProt P00533); assay: Kinase inhibition, Mobility Shift Assay (EGFR); format: biochemical
EGFR, sequence (P00533 25-1210): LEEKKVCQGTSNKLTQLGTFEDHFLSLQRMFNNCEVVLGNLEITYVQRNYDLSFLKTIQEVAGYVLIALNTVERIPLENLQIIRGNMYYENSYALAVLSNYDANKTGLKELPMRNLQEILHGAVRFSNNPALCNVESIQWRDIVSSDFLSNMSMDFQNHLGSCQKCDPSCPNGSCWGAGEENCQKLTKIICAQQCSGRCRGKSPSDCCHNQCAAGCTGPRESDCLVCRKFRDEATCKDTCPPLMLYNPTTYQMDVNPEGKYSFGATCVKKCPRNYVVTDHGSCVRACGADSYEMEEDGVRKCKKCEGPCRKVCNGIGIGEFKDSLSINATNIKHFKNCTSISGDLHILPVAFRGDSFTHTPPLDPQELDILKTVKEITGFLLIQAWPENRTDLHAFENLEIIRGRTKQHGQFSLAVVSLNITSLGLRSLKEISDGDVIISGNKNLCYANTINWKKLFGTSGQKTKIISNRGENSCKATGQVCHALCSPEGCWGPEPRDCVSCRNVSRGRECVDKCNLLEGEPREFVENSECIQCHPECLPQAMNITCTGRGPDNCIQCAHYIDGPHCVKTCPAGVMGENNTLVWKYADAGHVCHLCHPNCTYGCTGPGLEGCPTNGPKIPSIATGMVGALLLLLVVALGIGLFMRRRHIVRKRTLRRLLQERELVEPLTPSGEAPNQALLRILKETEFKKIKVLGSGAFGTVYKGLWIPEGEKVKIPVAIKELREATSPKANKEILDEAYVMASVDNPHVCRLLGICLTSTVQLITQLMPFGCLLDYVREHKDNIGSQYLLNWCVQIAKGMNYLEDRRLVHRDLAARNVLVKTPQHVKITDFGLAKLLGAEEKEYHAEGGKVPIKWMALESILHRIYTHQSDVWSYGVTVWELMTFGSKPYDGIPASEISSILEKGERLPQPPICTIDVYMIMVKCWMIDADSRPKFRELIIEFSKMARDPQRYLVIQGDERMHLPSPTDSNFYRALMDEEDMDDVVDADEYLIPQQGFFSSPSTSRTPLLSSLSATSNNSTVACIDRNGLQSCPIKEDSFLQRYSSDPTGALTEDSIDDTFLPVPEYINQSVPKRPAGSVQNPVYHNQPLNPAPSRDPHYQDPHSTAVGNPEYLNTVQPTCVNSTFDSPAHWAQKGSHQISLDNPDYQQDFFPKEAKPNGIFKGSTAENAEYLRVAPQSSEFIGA
Procedure: as §1, §2, §3, §4

KDR (VEGFR2), sequence (P35968 790-1356): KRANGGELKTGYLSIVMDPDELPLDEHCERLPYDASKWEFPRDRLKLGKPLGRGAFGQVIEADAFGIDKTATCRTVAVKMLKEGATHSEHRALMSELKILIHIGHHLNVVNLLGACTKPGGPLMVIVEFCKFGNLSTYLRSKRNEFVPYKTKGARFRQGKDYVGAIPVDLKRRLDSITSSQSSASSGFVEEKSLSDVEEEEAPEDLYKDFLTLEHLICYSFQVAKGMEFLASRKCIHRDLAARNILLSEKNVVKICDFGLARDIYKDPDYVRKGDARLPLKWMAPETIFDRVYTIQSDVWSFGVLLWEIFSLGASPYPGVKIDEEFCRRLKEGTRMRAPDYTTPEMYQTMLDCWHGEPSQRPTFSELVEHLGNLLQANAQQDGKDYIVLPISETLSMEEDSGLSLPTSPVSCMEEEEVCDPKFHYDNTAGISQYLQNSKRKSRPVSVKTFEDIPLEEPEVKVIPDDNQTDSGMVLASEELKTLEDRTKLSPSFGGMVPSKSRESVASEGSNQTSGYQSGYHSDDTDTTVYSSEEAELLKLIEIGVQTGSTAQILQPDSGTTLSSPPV

Row | SMILES | IC50 (KDR (VEGFR2)) [nM] | IC50 (FLT1 (VEGFR1)) [nM] | IC50 (FLT4 (VEGFR3)) [nM] | fraction unbound at 2 h, 2 μM (melanin) | IC50 (EGFR) [nM]
1 | CNC(=O)c1ccccc1Sc1ccc2c(/C=C/c3ccnc(OCCN4CCCC4)c3)n[nH]c2c1 [Compound I-18, N-methyl-2-({3-[(E)-2-{2-[2-(pyrrolidin-1-yl)ethoxy]pyridin-4-yl}vinyl]-1H-indazol-6-yl}thio)benzamide] | 1 to 10 | 1 to 10 | 1 to 10 | 0.01 to 0.05 | 6000 to 60000
2 | CNC(=O)c1ccccc1Sc1ccc2c(/C=C/c3ccc(OCCN4CCCC4)nc3)n[nH]c2c1 [Compound I-19, N-methyl-2-({3-[(E)-2-{6-[2-(pyrrolidin-1-yl)ethoxy]pyridin-3-yl}vinyl]-1H-indazol-6-yl}thio)benzamide] | 1 to 10 | 1 to 10 | 1 to 10 | 0.01 to 0.05 | > 60000
3 | CNC(=O)c1ccccc1Sc1cnc2c(/C=C/c3ccccn3)n[nH]c2c1 [Compound I-21, N-methyl-2-({3-[(E)-2-(pyridin-2-yl)vinyl]-1H-pyrazolo[4,3-b]pyridin-6-yl}thio)benzamide] | 10 to 100 | 10 to 100 | 10 to 100 | 0.01 to 0.05 | 6000 to 60000
4 | CNC(=O)c1ccccc1Sc1ccc2c(/C=C/c3cncc(OCCN4CCCC4)c3)n[nH]c2c1 [Compound I-22, N-methyl-2-({3-[(E)-2-{5-[2-(pyrrolidin-1-yl)ethoxy]pyridin-3-yl}vinyl]-1H-indazol-6-yl}thio)benzamide] | 10 to 100 | 10 to 100 | 10 to 100 | 0.01 to 0.05 | > 60000
5 | CNC(=O)c1ccccc1Sc1ccc2c(C#Cc3cc(OCCN4CCCC4)ccn3)n[nH]c2c1 [Compound I-23, N-methyl-2-{[3-(2-{4-[2-(pyrrolidin-1-yl)ethoxy]pyridin-2-yl}ethynyl)-1H-indazol-6-yl]thio}benzamide] | 10 to 100 | 10 to 100 | > 100 | 0.01 to 0.05 | 6000 to 60000
6 | CNC(=O)c1ccccc1Sc1ccc2c(/C=C/c3ccnn3CCN3CCCC3)n[nH]c2c1 [Compound I-25, N-methyl-2-({3-[(E)-2-{1-[2-(pyrrolidin-1-yl)ethyl]-1H-pyrazole-5-yl}vinyl]-1H-indazol-6-yl}thio)benzamide] | > 100 | 10 to 100 | 10 to 100 | > 0.05 | 6000 to 60000
7 | CNC(=O)c1ccccc1Sc1ccc2c(NC(=O)NCCN3CCN(C)CC3)n[nH]c2c1 [Compound I-31] | > 100 | > 100 | > 100 | 0.01 to 0.05 | > 60000
8 | CNC(=O)c1ccccc1Sc1ccc2c(/C=C/c3cnn(CCCN4CCCC4)c3)n[nH]c2c1 [Compound I-32, N-methyl-2-({3-[(E)-2-{1-[3-(pyrrolidin-1-yl)propyl]-1H-pyrazole-4-yl}vinyl]-1H-indazol-6-yl}thio)benzamide] | 1 to 10 | 1 to 10 | 1 to 10 | 0.01 to 0.05 | 6000 to 60000

The next lines start with the values.

Row | IC50 (KDR (VEGFR2)) [nM] | IC50 (FLT1 (VEGFR1)) [nM] | IC50 (FLT4 (VEGFR3)) [nM] | fraction unbound at 2 h, 2 μM (melanin) | IC50 (EGFR) [nM] | SMILES
9 | ≤ 1 | ≤ 1 | ≤ 1 | > 0.05 | – | CNC(=O)c1ccccc1Sc1ccc2c(/C=C/c3ccc(OCC4CCN(C)C4)cn3)n[nH]c2c1 (centres unmarked) [Compound I-1, N-methyl-2-({3-[(E)-2-{5-[(1-methylpyrrolidin-3-yl)methoxy]pyridin-2-yl}vinyl]-1H-indazol-6-yl}thio)benzamide]
10 | ≤ 1 | ≤ 1 | ≤ 1 | > 0.05 | 6000 to 60000 | CNC(=O)c1ccccc1Sc1ccc2c(/C=C/c3ccc(OCCN4CCN(C)CC4)cn3)n[nH]c2c1 [Compound I-4, N-methyl-2-({3-[(E)-2-{5-[2-(4-methylpiperazin-1-yl)ethoxy]pyridin-2-yl}vinyl]-1H-indazol-6-yl}thio)benzamide]
11 | ≤ 1 | ≤ 1 | ≤ 1 | 0.01 to 0.05 | 6000 to 60000 | CNC(=O)c1ccccc1Sc1ccc2c(/C=C/c3ccc(OCCC4CCN(C)CC4)cn3)n[nH]c2c1 [Compound I-5, N-methyl-2-({3-[(E)-2-{5-[2-(1-methylpiperidin-4-yl)ethoxy]pyridin-2-yl}vinyl]-1H-indazol-6-yl}thio)benzamide]
12 | 1 to 10 | 1 to 10 | 1 to 10 | 0.01 to 0.05 | 6000 to 60000 | O=C(NC1CC1)c1ccccc1Sc1ccc2c(/C=C/c3ccc(OCCN4CCCC4)cn3)n[nH]c2c1 [Compound I-8, N-cyclopropyl-2-({3-[(E)-2-{5-[2-(pyrrolidin-1-yl)ethoxy]pyridin-2-yl}vinyl]-1H-indazol-6-yl}thio)benzamide]
13 | 1 to 10 | 1 to 10 | 1 to 10 | 0.01 to 0.05 | 6000 to 60000 | CNC(=O)c1ccccc1Sc1ccc2c(/C=C/c3ccn(CCCN4CCCC4)n3)n[nH]c2c1 [Compound I-11, N-methyl-2-({3-[(E)-2-{1-[3-(pyrrolidin-1-yl)propyl]-1H-pyrazole-3-yl}vinyl]-1H-indazol-6-yl}thio)benzamide]
14 | 1 to 10 | 1 to 10 | ≤ 1 | 0.01 to 0.05 | 6000 to 60000 | CNC(=O)c1ccccc1Sc1ccc2c(/C=C/c3ccn(CCN4CCCC4)n3)n[nH]c2c1 [Compound I-13, N-methyl-2-({3-[(E)-2-{1-[2-(pyrrolidin-1-yl)ethyl]-1H-pyrazole-3-yl}vinyl]-1H-indazol-6-yl}thio)benzamide]
15 | 1 to 10 | 1 to 10 | 1 to 10 | 0.01 to 0.05 | 6000 to 60000 | CNC(=O)c1ccccc1Sc1ccc2c(/C=C/c3cccc(OCCN4CCCC4)c3)n[nH]c2c1 [Compound I-15, N-methyl-2-({3-[(E)-2-{3-[2-(pyrrolidin-1-yl)ethoxy]phenyl}vinyl]-1H-indazol-6-yl}thio)benzamide]
16 | 1 to 10 | 1 to 10 | 1 to 10 | < 0.01 | 6000 to 60000 | CNC(=O)c1ccccc1Sc1ccc2c(C#Cc3ccc(OCCN4CCCC4)cn3)n[nH]c2c1 [Compound I-16, N-methyl-2-{[3-(2-{5-[2-(pyrrolidin-1-yl)ethoxy]pyridin-2-yl}ethynyl)-1H-indazol-6-yl]thio}benzamide]
17 | 1 to 10 | 1 to 10 | 1 to 10 | 0.01 to 0.05 | 6000 to 60000 | CNC(=O)c1ccccc1Sc1ccc2c(/C=C/c3cccc(OCCN4CCCC4)n3)n[nH]c2c1 [Compound I-17, N-methyl-2-({3-[(E)-2-{6-[2-(pyrrolidin-1-yl)ethoxy]pyridin-2-yl}vinyl]-1H-indazol-6-yl}thio)benzamide]
18 | ≤ 1 | 1 to 10 | 1 to 10 | – | > 60000 | O=C(NC1CC1)c1ccccc1Sc1ccc2c(/C=C/c3cc(CCCN4CCCC4)ccn3)n[nH]c2c1 [Compound I-120, N-cyclopropyl-2-({3-[(E)-2-{4-[3-(pyrrolidin-1-yl)propyl]pyridin-2-yl}vinyl]-1H-indazol-6-yl}thio)benzamide]
19 | ≤ 1 | 1 to 10 | ≤ 1 | – | 6000 to 60000 | O=C(NC1CC1)c1ccccc1Sc1ccc2c(/C=C/c3cccc(CCCN4CCCC4)n3)n[nH]c2c1 [Compound I-121, N-cyclopropyl-2-({3-[(E)-2-{6-[3-(pyrrolidin-1-yl)propyl]pyridin-2-yl}vinyl]-1H-indazol-6-yl}thio)benzamide]
